Measured values published in US20230348426A1, “OXOPYRROLIDINE FPR2 AGONISTS” (Bristol-Myers Squibb Company, priority 2020, published 2023).

Experiments:
[1] = molecular target: human FPR1 (Homo sapiens (Human), UniProt P21462); assay: FPR1 cyclic adenosine monophosphate (cAMP) assay; format: cell-based; conditions: CHO cells overexpressing human FPR1; forskolin 10 µM; inhibition of cAMP production; read-out: hFPR1 cAMP EC50
Procedure, shortened: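 CHO cells overexpressing human FPR1 (4,000 cells/well) stimulated with 10 µM forskolin plus 200 µM IBMX in the presence of compound (0.020 nM–100 µM, 1% DMSO), 30 min at room temperature. Intracellular cAMP measured by HTRF. Inhibition of cAMP production fitted to a 4-parameter logistic equation.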

[2] = molecular target: human FPR2 (Homo sapiens (Human), UniProt P25090); assay: FPR2 cyclic adenosine monophosphate (cAMP) assay; format: cell-based; conditions: CHO cells overexpressing human FPR2; forskolin 5 µM; inhibition of cAMP production; read-out: hFPR2 cAMP2 EC50
Procedure, shortened: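 CHO cells overexpressing human FPR2 (2,000/well) incubated 30 min at room temperature with compound (0.020 nM–100 µM, 1% DMSO), 5 µM forskolin and 200 µM IBMX.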

Chain of human FPR1 (P21462 whole entry): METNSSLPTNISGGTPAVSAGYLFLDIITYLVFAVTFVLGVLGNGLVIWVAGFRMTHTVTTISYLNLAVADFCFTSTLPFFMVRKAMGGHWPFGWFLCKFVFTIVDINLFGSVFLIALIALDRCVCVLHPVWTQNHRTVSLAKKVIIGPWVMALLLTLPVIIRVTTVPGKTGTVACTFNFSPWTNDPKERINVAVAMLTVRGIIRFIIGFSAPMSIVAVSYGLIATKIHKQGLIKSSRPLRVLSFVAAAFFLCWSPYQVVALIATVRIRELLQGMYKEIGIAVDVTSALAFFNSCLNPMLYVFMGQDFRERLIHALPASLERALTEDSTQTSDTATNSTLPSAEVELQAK
Chain of human FPR2 (P25090 whole entry): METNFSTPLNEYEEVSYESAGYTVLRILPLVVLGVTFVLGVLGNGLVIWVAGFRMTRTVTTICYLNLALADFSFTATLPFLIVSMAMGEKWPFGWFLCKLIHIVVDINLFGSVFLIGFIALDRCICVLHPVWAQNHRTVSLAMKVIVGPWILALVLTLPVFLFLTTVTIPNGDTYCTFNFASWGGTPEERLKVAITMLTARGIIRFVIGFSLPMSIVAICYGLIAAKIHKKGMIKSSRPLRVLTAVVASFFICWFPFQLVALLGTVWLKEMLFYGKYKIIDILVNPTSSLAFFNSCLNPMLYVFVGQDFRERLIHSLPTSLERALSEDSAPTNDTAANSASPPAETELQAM

| SMILES | EC50 [1] | EC50 [2] |
| --- | --- | --- |
| COc1cc(C2CCN(CCO)CC2)nc(N2C(=O)[C@@H](NC(=O)c3ccc(OC(F)F)cc3)[C@H](c3c(F)cc(OC)cc3F)[C@@H]2C)c1 [Example 504] | 3300 nM | 2.2 nM |
| COc1cc(F)c([C@@H]2CN(c3nccc(N4CCN(C)CC4)c3C#N)C(=O)[C@H]2NC(=O)c2ccc(Cl)cc2)c(F)c1 [Example 287] | 4600 nM | 8.6 nM |
| COc1cc(F)c([C@@H]2CN(c3c(C)ccn(CC(O)C(F)(F)F)c3=O)C(=O)[C@H]2NC(=O)c2ccc(Cl)cc2)c(F)c1 (stereo partly shown) [Example 483] | 16 nM | 5.6 nM |
| COCC(CO)n1ccc(C)c(N2C[C@@H](c3c(F)cc(OC)cc3F)[C@H](NC(=O)c3ccc(OC(F)(F)F)cc3)C2=O)c1=O (stereo partly shown) [Example 325] | 1.6 nM | 11 nM |
| COCCn1cc(F)cc(N2C[C@@H](c3c(F)cc(OC)cc3F)[C@H](NC(=O)c3ccc(OC(F)F)cc3)C2=O)c1=O [Example 268] | 140 nM | 7.7 nM |
| COc1ccc([C@@H]2CN(c3c(C)ccn(CC4CC4)c3=O)C(=O)[C@H]2NC(=O)c2ccc(OC(F)(F)F)cc2)c(F)c1 [Example 312] | 0.5 nM | 10 nM |
| COCCn1cccc(N2C[C@@H](c3c(F)cc(OC)cc3F)[C@H](NC(=O)c3ccc(OC(F)F)cc3)C2=O)c1=O [Example 113] | 16 nM | 3 nM |
| COc1cc(F)c([C@@H]2CN(c3c(C)ccn(CC(OC)C(F)(F)F)c3=O)C(=O)[C@H]2NC(=O)c2ccc(OC(F)F)cc2)c(F)c1 (stereo partly shown) [Example 314] | 0.4 nM | 10 nM |
| COc1cc(F)c([C@@H]2CN(c3nc(N4CCCC4=O)ccc3F)C(=O)[C@H]2NC(=O)c2ccc(OC(F)F)cc2)c(F)c1 [Example 280] | 26 nM | 8.2 nM |
| COc1cc(F)c([C@@H]2CN(CC3CC3)C(=O)[C@H]2NC(=O)c2ccc(OC(F)(F)F)cc2)c(F)c1 [Example 20] | 560 nM | 32 nM |
| COc1ccc([C@@H]2CN(c3c(C)ccn(CC(F)F)c3=O)C(=O)[C@H]2NC(=O)c2ccc(Cl)cc2)c(F)c1 [Example 377] | 5 nM | 1.6 nM |
| COc1cc(F)c([C@H]2[C@H](NC(=O)c3ccc(OC(F)F)cc3)C(=O)N(c3cccc(C4CCCN(C)C4)n3)[C@H]2C)c(F)c1 (stereo partly shown) [Example 513] | 1500 nM | 2.4 nM |
| COc1ccc([C@@H]2CN(c3cccn(CC(O)C(F)(F)F)c3=O)C(=O)[C@H]2NC(=O)c2ccc(OC(F)(F)F)cc2)cc1 (stereo partly shown) [Example 657] | 45 nM | 2 nM |
| COc1cc(F)c([C@H]2[C@H](NC(=O)c3ccc(Cl)cc3)C(=O)N(c3nccn(CC(F)F)c3=O)[C@H]2C)c(F)c1 [Example 560] | 120 nM | 0.8 nM |
| COc1cc(F)c([C@@H]2CN(c3nc(NC4CCOC4)ccc3F)C(=O)[C@H]2NC(=O)c2ccc(OC(F)(F)F)cc2)c(F)c1 (stereo partly shown) [Example 62] | 110 nM | 1.6 nM |
| COc1cc(F)c([C@@H]2CN(c3c(C)ccn(CCS(C)(=O)=O)c3=O)C(=O)[C@H]2NC(=O)c2ccc(OC(F)(F)F)cc2)c(F)c1 [Example 469] | 2 nM | 1.4 nM |
| COCC(CO)n1cccc(N2C[C@@H](c3c(F)cc(OC)cc3F)[C@H](NC(=O)c3ccc(OC(F)F)cc3)C2=O)c1=O (stereo partly shown) [Example 133] | 12 nM | 3.4 nM |
| COc1cc(F)c([C@@H]2CN(c3nc(C(F)(F)F)ccc3C)C(=O)[C@H]2NC(=O)c2ccc(OC(F)F)cc2)c(F)c1 [Example 204] | 520 nM | 5.3 nM |
| COc1cc(F)c([C@@H]2CN(c3cncn(CC(C)O)c3=O)C(=O)[C@H]2NC(=O)c2ccc(OC(F)F)cc2)c(F)c1 (stereo partly shown) [Example 467] | 1500 nM | 1.8 nM |
| COc1cc(F)c([C@@H]2CN(c3c(C)ccn(CC(C)O)c3=O)C(=O)[C@H]2NC(=O)c2ccc(OC(F)F)cc2)c(F)c1 (stereo partly shown) [Example 360] | 18 nM | 3.2 nM |
| COc1cc(F)c([C@@H]2CN(c3cncn(C(CO)C(F)(F)F)c3=O)C(=O)[C@H]2NC(=O)c2ccc(Cl)cc2)c(F)c1 (stereo partly shown) [Example 518] | 3300 nM | 2 nM |
| COc1cc(F)c([C@@H]2CN(c3cncn(C4CCNC4)c3=O)C(=O)[C@H]2NC(=O)c2ccc(Cl)cc2)c(F)c1 (stereo partly shown) [Example 710] | 490 nM | 4 nM |
| O=C(N[C@@H]1C(=O)N(c2cccn(CC(O)C(F)(F)F)c2=O)C[C@H]1c1ccc(Cl)cc1)c1ccc(OC(F)(F)F)cc1 (stereo partly shown) [Example 609] | 28 nM | 1.8 nM |
| COCC(C(=O)N(C)C)n1cccc(N2C[C@@H](c3ccc(Cl)cc3)[C@H](NC(=O)c3ccc(OC(F)F)cc3)C2=O)c1=O (stereo partly shown) [Example 317] | 2.6 nM | 10 nM |

Second part, the molecule after the results:

| EC50 [1] | EC50 [2] | SMILES |
| --- | --- | --- |
| 295 nM | 13 nM | COc1cc(F)c([C@@H]2CN(c3nccc(OCC(C)(C)O)c3C(F)(F)F)C(=O)[C@H]2NC(=O)c2ccc(Cl)cc2)c(F)c1 [Example 676] |
| 5.3 nM | 2.2 nM | CCn1cccc(N2C[C@@H](c3ccc(OC)cc3F)[C@H](NC(=O)c3ccc(OC(F)(F)F)cc3)C2=O)c1=O [Example 82] |
| 4.2 nM | 4.1 nM | O=C(N[C@@H]1C(=O)N(c2cccn(CC(O)C(F)(F)F)c2=O)C[C@H]1c1ccc(Cl)cc1)c1ccc(OC(F)(F)F)cc1 (stereo partly shown) [Example 608] |
| 4 nM | 2.3 nM | COCC(CO)n1ccc(C)c(N2C[C@@H](c3c(F)cc(OC)cc3F)[C@H](NC(=O)c3ccc(OC(F)F)cc3)C2=O)c1=O (stereo partly shown) [Example 426] |
| 3.1 nM | 89 nM | CCn1cccc(N2C[C@@H](c3c(F)cc(OC)cc3F)[C@H](NC(=O)c3cccc(OC)c3)C2=O)c1=O [Example 345] |
| 2 nM | 4.7 nM | COc1ccc([C@@H]2CN(c3cccn(CC(C)OC)c3=O)C(=O)[C@H]2NC(=O)c2ccc(OC(F)(F)F)cc2)cc1 (stereo partly shown) [Example 405] |
| 0.67 nM | 3 nM | COc1ccc([C@@H]2CN(c3c(C)ccn(CC4CCOCC4)c3=O)C(=O)[C@H]2NC(=O)c2ccc(OC(F)(F)F)cc2)cc1 [Example 700] |
| 6100 nM | 8 nM | CNC(=O)C(C)Nc1ccnc(N2C[C@@H](c3c(F)cc(OC)cc3F)[C@H](NC(=O)c3ccc(Cl)cc3)C2=O)c1C(F)(F)F (stereo partly shown) [Example 275] |
| 420 nM | 1.4 nM | COc1cc(F)c([C@@H]2CN(c3cccc(C4CCN(C)CC4)n3)C(=O)[C@H]2NC(=O)c2ccc(OC(F)F)cc2)c(F)c1 [Example 525] |
| 0.066 nM | 1.4 nM | COc1ccc([C@@H]2CN(c3c(C)ccn(CC4CC4)c3=O)C(=O)[C@H]2NC(=O)c2ccc(OC(F)(F)F)cc2)cc1 [Example 57] |
| 4100 nM | 23 nM | COc1cc(F)c([C@@H]2CN(c3c(F)cccc3C#N)C(=O)[C@H]2NC(=O)c2ccc(Cl)cc2)c(F)c1 [Example 341] |
| 110 nM | 6.4 nM | COc1cc(F)c([C@@H]2CN(c3c(C)ccn(C4CCN(C)C4)c3=O)C(=O)[C@H]2NC(=O)c2ccc(OC(F)F)cc2)c(F)c1 (stereo partly shown) [Example 508] |
| 7 nM | 5.5 nM | CC(O)Cn1cccc(N2C[C@@H](c3ccc(Cl)cc3)[C@H](NC(=O)c3ccc(OC(F)(F)F)cc3)C2=O)c1=O (stereo partly shown) [Example 439] |
| 1.5 nM | 4.5 nM | COc1ccc([C@@H]2CN(c3c(C)ccn(C4CCC4)c3=O)C(=O)[C@H]2NC(=O)c2ccc(OC(F)F)cc2)c(F)c1 [Example 689] |
